Earlier results, collected in patent US20190314449A1, “CYCLIC DIPEPTIDES AND WOUND HEALING” (THE BOARD OF REGENTS OF THE UNIVERSITY OF TEXAS SYSTEM, priority 2016, published 2019).

What was measured:
heme oxygenase 1 = details: neuronal cultures; cited from earlier work
[1] = human, acute oral, 24 mg/dose, cited from earlier work

## O=C1NC(Cc2c[nH]cn2)C(=O)N2CCCC12 (centres unmarked) [Cyclo-His-Pro]
Heme oxygenase 1
  heme oxygenase 1 expression via activation of Nrf-2 ARE signaling: up-regulate heme oxygenase 1
[1]; plasma
  time at which plasma CHP levels peak: 4 h
  time at which plasma CHP levels return to normal: ≤ 24 h
[1]
  absorption from the gastrointestinal tract: absorbed from the gastrointestinal tract
  side effects based on physical and blood chemistry examinations: No side effects
